Test results published in PubChem BioAssay (NCI).
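Method: 48-hour compound exposure of cells in 96-well plates, five concentrations, linear interpolation of endpoints. At the GI50, growth is halved. TGI denotes the concentration required for complete inhibition of growth.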

Key:
Experiment in all cases: NCI-60 cell line screen, 48 h
HL-60(TB) leukemia = system: HL-60(TB) leukemia
NCI-H522 lung = system: NCI-H522 lung
EKVX NSCLC = system: EKVX NSCLC
SN12C renal = system: SN12C renal
M14 melanoma = system: M14 melanoma
SK-MEL-5 melanoma = system: SK-MEL-5 melanoma
SW-620 colon = system: SW-620 colon
HOP-62 NSCLC = system: HOP-62 NSCLC
SNB-75 CNS = system: SNB-75 CNS
KM12 colon = system: KM12 colon

Compound | GI50 (HL-60(TB) leukemia) | TGI (HL-60(TB) leukemia) | GI50 (NCI-H522 lung) | TGI (NCI-H522 lung) | GI50 (EKVX NSCLC) | TGI (EKVX NSCLC) | GI50 (SN12C renal) | TGI (SN12C renal) | GI50 (M14 melanoma) | TGI (M14 melanoma) | GI50 (SK-MEL-5 melanoma) | TGI (SK-MEL-5 melanoma) | GI50 (SW-620 colon) | TGI (SW-620 colon) | GI50 (HOP-62 NSCLC) | TGI (HOP-62 NSCLC) | GI50 (SNB-75 CNS) | TGI (SNB-75 CNS) | GI50 (KM12 colon) | TGI (KM12 colon)
CC1=CC(=O)N(c2cccc3c(N4C(=O)C=C(C)C4=O)cccc23)C1=O | 2.38 µM | 8.8 µM | 0.693 µM | 1.79 µM | 15.6 µM | 33.5 µM | 8.62 µM | 26.5 µM | 3.9 µM | 19.5 µM | 15.5 µM | 36.3 µM | 0.99 µM | 2.93 µM | 28.3 µM | > 69.3 µM | 28.1 µM | > 100 µM | 11.3 µM | 34 µM
Nc1ccccc1C#C/C=C\C#Cc1ccccc1C#CCO | 8.49 µM | > 50 µM | 11.8 µM | 28.2 µM | 12 µM | > 50 µM | 9.46 µM | 27.4 µM | 7.68 µM | 26 µM | 6.1 µM | 14.1 µM | 4.4 µM | 35.8 µM | 8.35 µM | > 50 µM | 18 µM | 42.1 µM | 1.81 µM | 7.8 µM
C/C(=N\NC(=O)c1ccncc1)c1sc(-n2nc(-c3ccccc3)cc2-c2ccccc2)nc1C | – | > 31.6 µM | – | > 80.5 µM | – | > 100 µM | – | > 100 µM | – | > 31.6 µM | – | > 31.6 µM | – | > 31.6 µM | – | > 31.6 µM | – | > 100 µM | – | > 100 µM
O=C(Nc1ccncc1)C(=O)c1cn(S(=O)(=O)c2cccc(Cl)c2)c2ccccc12 | 3.94 µM | > 100 µM | 2.41 µM | 16.9 µM | 5.16 µM | > 100 µM | 13 µM | > 100 µM | 4.09 µM | 32.6 µM | 3.61 µM | 39.5 µM | 4.74 µM | > 100 µM | 7.26 µM | 48.1 µM | 5.16 µM | 23.2 µM | 3.96 µM | > 100 µM
N#C/C(=C\c1cc(O)c(O)c(O)c1)C(N)=O | – | > 81.5 µM | – | > 100 µM | – | > 100 µM | – | > 100 µM | – | > 100 µM | – | > 100 µM | – | > 100 µM | – | > 100 µM | – | > 100 µM | – | > 100 µM
C/C=C(\N=C=S)C(=O)OC1C(COC(C)=O)OC([C@]2(O)CC(=O)C(=N)C(C(=O)O)=C2O)C(O)C1OC1CC(OC)C(O)([C@@H](C)OC(=O)[C@@H](C)CC)C(C)O1 (stereo not given in full) | – | 5.34 µM | – | 5.32 µM | – | 30.3 µM | – | 40 µM | – | 30.9 µM | – | 28.6 µM | – | 8.33 µM | – | 45.7 µM | – | 34.8 µM | – | 19.9 µM
NS(=O)(=O)c1ccc(N=Nc2ccc[nH]c2=O)cc1 | – | > 100 µM | – | > 100 µM | – | > 100 µM | – | > 100 µM | – | > 100 µM | – | > 100 µM | – | > 100 µM | – | > 100 µM | – | > 100 µM | – | > 100 µM
CN(C)NC1=C([N+](=O)[O-])C=NN(c2ccccc2)C1 | – | 4.62 µM | – | 0.343 µM | – | 3.52 µM | – | 3.22 µM | – | 3.23 µM | – | 6.41 µM | – | 3.67 µM | – | 4.33 µM | – | 3.34 µM | – | 11.9 µM
CC1(C)C(N2CCOCC2)CS1(=O)=O (stereo not given) | – | > 10 µM | – | > 10 µM | – | > 10 µM | – | > 10 µM | – | > 10 µM | – | > 10 µM | – | > 10 µM | – | > 10 µM | – | > 10 µM | – | > 10 µM
C=C1c2nc3ccccc3n2C=C(c2cccc(Cl)c2)N1Cc1ccc(OC)cc1 | 0.193 µM | 0.639 µM | 0.221 µM | 1.1 µM | 1.07 µM | 12.8 µM | 1.26 µM | 50.3 µM | 0.589 µM | > 44.2 µM | 0.276 µM | 3.55 µM | 0.441 µM | > 78.2 µM | 2.35 µM | 39.8 µM | 0.452 µM | > 100 µM | 1.76 µM | 16.6 µM
CC1(C)c2ccccc2N2C(c3ccccc3)=NOC21C (stereo not given) | – | > 100 µM | – | > 100 µM | – | > 100 µM | – | > 100 µM | – | > 100 µM | – | > 100 µM | – | > 100 µM | – | > 100 µM | – | > 100 µM | – | > 100 µM
CN1CCC2(CC1)N=C(SCC(=O)Nc1cnc3ccccc3c1)C(c1ccc(Br)cc1)=N2 | 1.61 µM | 3.75 µM | 1.91 µM | 3.82 µM | 2.51 µM | 10.2 µM | 2.1 µM | 4.99 µM | 1.71 µM | 3.16 µM | 1.68 µM | 3.07 µM | 1.88 µM | 3.65 µM | 3.42 µM | 14.7 µM | 2.04 µM | 9.65 µM | 2.62 µM | 6.55 µM
COc1cc(-c2nn(-c3ccc(NC(=O)Nc4cc(C(F)(F)F)cc(C(F)(F)F)c4)cc3)cc2-c2ccncc2)ccc1Cl | 3.04 µM | > 100 µM | 2.25 µM | 5.99 µM | 1.43 µM | 3.48 µM | 1.71 µM | 4.21 µM | 1.99 µM | 4.23 µM | 1.53 µM | 2.98 µM | 1.87 µM | 3.84 µM | 1.51 µM | 3.1 µM | 1.99 µM | 5.35 µM | 1.34 µM | 3.09 µM
O=C1C=C(NCCO)c2nccc3c2c1nc1ccccc13 | 14.2 µM | > 100 µM | 22.5 µM | 85 µM | 26.5 µM | 92.2 µM | 18.2 µM | > 100 µM | 17.3 µM | 58.7 µM | 16.3 µM | 35 µM | 15.5 µM | > 100 µM | 12.3 µM | 57.8 µM | 49.7 µM | > 100 µM | 21 µM | > 100 µM
Cn1c(CCCC(=O)O)nc2cc(N(CCCl)CCCl)ccc21 | > 51.2 µM | > 85.3 µM | > 93 µM | > 100 µM | > 100 µM | > 100 µM | 45.1 µM | > 100 µM | > 65.5 µM | > 100 µM | > 71.6 µM | > 100 µM | 78.4 µM | > 100 µM | > 76.3 µM | > 100 µM | > 83.5 µM | > 100 µM | > 100 µM | > 100 µM
